Legend:
Conditions in all cases: 72 h
Caco-2 [1] = test: cell viability relative to DMSO; higher = less toxic
Calu-3 [2] = test: as above
HepG2 [3] = test: as above
U2OS [4] = test: as above
Vero E6 [5] = test: as above
Caco-2 [6] = test: relative viability EC50 (midpoint between 100% and the lowest measured viability); higher = less toxic
Calu-3 [7] = test: as above
U2OS [8] = test: as above
Vero E6 [9] = test: as above
Caco-2 [10] = test: drug sensitivity score (DSS) for viability; higher = more toxic; extreme values may be limits of the assay
Calu-3 [11] = test: as above
HepG2 [12] = test: as above
U2OS [13] = test: as above
Vero E6 [14] = test: as above
HepG2 [15] = test: relative viability EC50 (midpoint between 100% and the lowest measured viability); higher = less toxic

Row | Compound | cell viability (Caco-2 [1]; 1 nM) | cell viability (Caco-2 [1]; 10 nM) | cell viability (Caco-2 [1]; 100 nM) | cell viability (Caco-2 [1]; 1000 nM) | cell viability (Caco-2 [1]; 10000 nM) | cell viability (Calu-3 [2]; 1 nM) | cell viability (Calu-3 [2]; 10 nM) | cell viability (Calu-3 [2]; 100 nM) | cell viability (Calu-3 [2]; 1000 nM) | cell viability (Calu-3 [2]; 10000 nM) | cell viability (HepG2 [3]; 1 nM) | cell viability (HepG2 [3]; 10 nM) | cell viability (HepG2 [3]; 100 nM) | cell viability (HepG2 [3]; 1000 nM) | cell viability (HepG2 [3]; 10000 nM) | cell viability (U2OS [4]; 1 nM) | cell viability (U2OS [4]; 10 nM) | cell viability (U2OS [4]; 100 nM) | cell viability (U2OS [4]; 1000 nM) | cell viability (U2OS [4]; 10000 nM) | cell viability (Vero E6 [5]; 1 nM) | cell viability (Vero E6 [5]; 10 nM) | cell viability (Vero E6 [5]; 100 nM) | cell viability (Vero E6 [5]; 1000 nM) | cell viability (Vero E6 [5]; 10000 nM) | relative viability EC50 (Caco-2 [6]) | relative viability EC50 (Calu-3 [7]) | relative viability EC50 (U2OS [8]) | relative viability EC50 (Vero E6 [9]) | drug sensitivity score (Caco-2 [10]) | drug sensitivity score (Calu-3 [11]) | drug sensitivity score (HepG2 [12]) | drug sensitivity score (U2OS [13]) | drug sensitivity score (Vero E6 [14]) | relative viability EC50 (HepG2 [15])
1 | Fc1ccc(C(OCCN2CCN(C/C=C/c3ccccc3)CC2)c2ccc(F)cc2)cc1 | 102% | 100% | 104% | 94.2% | 83.5% | 97.8% | 106% | 110% | 99.7% | 95.3% | 87.6% | 101% | 101% | 96.2% | 72.1% | 103% | 100% | 103% | 98.4% | 94.8% | 99.6% | 106% | 101% | 96% | 86.7% | > 10 µM | > 10 µM | > 10 µM | > 10 µM | 0.9 | 0 | 1.8 | 0 | 0.4 | –
2 | O=C(Nc1ccncc1)c1cc([N+](=O)[O-])ccc1Cl | 102% | 86.1% | 97.9% | 96.3% | 85.5% | – | – | – | – | – | 103% | 91.3% | 105% | 86% | 99.4% | 99.5% | 104% | 99.7% | 106% | 93.2% | 102% | 97.3% | 89.4% | 88% | 93.1% | > 10 µM | – | > 10 µM | > 10 µM | 0 | – | 0 | 0 | 0.9 | > 10 µM
3 | Cc1sc2c(c1C)C(c1ccc(Cl)cc1)=N[C@@H](CC(=O)Nc1ccc(OCCOCCOCCOCCNc3cccc4c3C(=O)N(C3CCC(=O)NC3=O)C4=O)cc1)c1nnc(C)n1-2 (some centres not stated) [ARV-825] | 91.4% | 92.6% | 90.1% | 44% | 51.7% | 95.1% | 91.4% | 111% | 72% | 62.9% | 95.4% | 103% | 89.9% | 40.5% | 25.2% | 95.4% | 93.6% | 96.9% | 51% | 31.7% | 94.6% | 105% | 91% | 76.3% | 11% | 0.184 µM | – | 0.577 µM | 1.55 µM | 12 | 5 | 12.3 | 9.9 | 8.3 | 0.381 µM
4 | CC1(C)C[C@@H]1C(=O)N/C(=C\CCCCSC[C@H](N)C(=O)O)C(=O)O [Cilastatin Sodium] | 101% | 107% | 105% | 99% | 102% | – | – | – | – | – | 108% | 102% | 95.4% | 87.7% | 96.5% | 97.4% | 100% | 95.9% | 102% | 97.6% | 104% | 102% | 99.2% | 99.8% | 94.3% | > 10 µM | – | > 10 µM | > 10 µM | 0 | – | 0.9 | 0 | 0 | > 10 µM
5 | O=C1C=CC(=O)C2=C1C1c3ccccc3C2c2ccccc21 [INCA-6] | 97.5% | 93.5% | 94.5% | 96.6% | 90.1% | 98.2% | 99.3% | 96.7% | 95.7% | 104% | 102% | 112% | 96.8% | 106% | 68.5% | 98% | 93.7% | 98.2% | 97.5% | 88.2% | 93.3% | 96.7% | 87% | 96.1% | 105% | > 10 µM | > 10 µM | > 10 µM | > 10 µM | 0 | 0 | 1.1 | 0 | 0 | –
6 | Cc1nn(C)c2nc(NNC(=O)Nc3cc(Cl)nc(Cl)c3)cc(C(C)C)c12 [JTE-013] | 96.7% | 100% | 105% | 100% | 82.4% | 101% | 101% | 97.5% | 110% | 92% | 97.8% | 93.1% | 104% | 95.6% | 74.2% | 107% | 100% | 99.4% | 93.6% | 92.9% | 99.1% | 105% | 95.7% | 100% | 93.9% | > 10 µM | > 10 µM | > 10 µM | > 10 µM | 0.4 | 0 | 1.7 | 0 | 0 | –
7 | C[C@@H](NC(=O)c1ncnc(N)c1Cl)c1ncc(C(=O)Nc2cc(C(F)(F)F)c(Cl)cn2)s1 [MLN2480] | 101% | 96.4% | 103% | 103% | 91.5% | – | – | – | – | – | 102% | 102% | 101% | 91.9% | 57% | 102% | 101% | 103% | 102% | 95.4% | 95.4% | 104% | 111% | 108% | 108% | > 10 µM | – | > 10 µM | > 10 µM | 0 | – | 3.5 | 0 | 0 | –
8 | Cc1ccc(S(=O)(=O)Nc2ccc3c(c2)c(C(=O)C(F)(F)F)cn3CC(=O)N[C@@H](CC(C)C)C(=O)O)cc1 [NTRC-824] | 94.7% | 103% | 95% | 102% | 89.7% | 88.4% | 101% | 94.2% | 102% | 93.5% | – | – | – | – | – | 102% | 109% | 102% | 102% | 95.3% | 96.9% | 98.1% | 100% | 94.7% | 95.4% | > 10 µM | > 10 µM | > 10 µM | > 10 µM | 0 | 0 | – | 0 | 0 | –
